Legend:
[1] = method code SF-AS, from PMID: 6540096; conditions: pH 7.5
[2] = not given; remark: listed apart in the source
[3] = from Comini, L.; Núñez Montoya, S.; Argüello, G.; Cabrera, J. (2006). Partition coefficient (log P) determination of anthraquinone derivatives isolated from Heterophyllaea pustulata Hook, f. (Rubiaceae). …; conditions: pH 7.4
[4] = pH 13.0
[5] = method code RP-HPLC, from DOI: 10.1016/0043-1354(79)90252-5; conditions: pH 7.0
[6] = method code SF-AS, from Falk, M.; Luecke, L. (1989). Transport of substances through lipid membranes. 11. Effect of esterification on the dissociation and permeation of orotic acid. Pharmazie, 44(9)647.; conditions: pH 1.2
[7] = method code SF-HPLC, from DOI: 10.1023/a:1015823315983, PMID: 1475237; conditions: pH 1.0
[8] = method code SF-AS, from DOI: 10.1021/jm9800301, PMID: 9748357; conditions: pH 7.4
[9] = method code SF-AS, from DOI: 10.1016/s0026-895x(25)10375-1
[10] = not given; remark: listed apart in the source
[11] = method code SF-AS, from PMID: 12408720; conditions: pH 7.4
[12] = method code SF-HPLC, from DOI: 10.1016/0378-5173(90)90303-l; conditions: pH 7.4
[13] = not given; remark: listed apart in the source
[14] = not given; remark: listed apart in the source
[15] = method code SF-AS, from DOI: 10.1016/j.ejps.2014.12.009, PMID: 25513709; conditions: pH 7.4
[16] = method code SF, from Rodriguez, L.; Zecchi, V.; Tartarini, A. (1984). Partition rate of some nonsteroidal anti-inflammatory agents in a three-phase water/n-octanol/water system. Pharmaceutical Acta Helvetiae, 59(3)95-96.; conditions: pH 12.0
[17] = method code SF-AS, from Rainer, G.; Krüger, U.; Klemm, K. (1981). Synthesis and physico-chemical properties of lonazolac-Ca, a new antiphlogistic/antirheumatic agent. Arzneimittelforschung, 31(4)649-55.
[18] = not given; remark: listed apart in the source
[19] = method code SF, from DOI: 10.1016/j.ecoenv.2008.09.011, PMID: 19560203
[20] = method code SF-HPLC, from DOI: 10.1021/jm100498u, PMID: 20704351; conditions: pH 7.4
[21] = method code SF-AS, from DOI: 10.1021/jm010817i, PMID: 11806714; conditions: pH 7.4
[22] = method code SF, from Li, Y.; Sun, S.; Zheng, Y. (2012). Determination of partition coefficients of icariside-II and icaritin based on the HPLC retention time. Chinese Pharmaceutical Journal, 47, 122-126.
[23] = method code SF-RC, from PMID: 3380859; conditions: pH 1.0
[24] = method code SF-AS, from DOI: 10.1248/cpb.42.1084, PMID: 8069960
[25] = method code SF-RC, from DOI: 10.1016/j.nucmedbio.2015.07.007, PMID: 26330158; conditions: pH 7.4
[26] = pH 7.4
[27] = method code SF-RC, from DOI: 10.1016/s0969-8051(03)00053-2; conditions: pH 7.4
[28] = not given; remark: listed apart in the source
[29] = not given; remark: listed apart in the source
[30] = method code SF-AS, from DOI: 10.1016/s0006-291x(75)80410-4, PMID: 1111518
[31] = not given; remark: listed apart in the source
[32] = method code G, from Wang, L.; Li, H.; Wang, X.; Zhang, Z. (1993). Determination of aqueous solubilities and partition coefficients of substitutive ethylketone congeners by generator column. Huanjing Huaxue, 12(2)151-154.
[33] = method code SF, from You, R.; Wang, L.; Cong, L.; Wang, Q.; Cai, P.; Yuan, H. (2007). Physicochemical properties of oxymatrine-phospholipid complex. Pharmaceutical Journal of Chinese People's Liberation Army, …; conditions: pH 7.5
[34] = not given; remark: listed apart in the source
[35] = method code SF-GLC, from DOI: 10.1584/jpestics.7.397
[36] = method code SF-AS, from DOI: 10.1081/jlc-100101656
[37] = method code SF-RC, from DOI: 10.1016/j.nucmedbio.2008.11.010, PMID: 19217534; conditions: pH 7.4
[38] = method code SF-AS, from DOI: 10.1002/jps.2600701116, PMID: 7299671; conditions: pH 2.2
[39] = not given; remark: listed apart in the source
[40] = not given; remark: listed apart in the source
[41] = not given; remark: listed apart in the source
[42] = not given; remark: listed apart in the source
[43] = not given; remark: listed apart in the source
[44] = method code SF-RC, from DOI: 10.1016/j.nucmedbio.2011.12.002, PMID: 22321533
[45] = pH 7.5

## CCc1cc2c(s1)N(C)C(=O)CN=C2c1ccccc1Cl
[1]
  logD: 3.35

## CC(C)NCC(O)c1ccc2ccccc2c1 (stereo unspecified)
other
  logP: 3

## CC(CC(=O)O)(N=O)c1cc(Oc2ccc(C(F)(F)F)cc2Cl)ccc1[N+](=O)[O-] (stereo unspecified)
[2]
  logP: 4.3

## COc1c(CO)c(O)cc2c1C(=O)c1ccccc1C2=O
[3]
  logD: 1.29

## C=CCOc1ccccc1OCC(O)CNC(C)C (stereo unspecified)
[4]
  logD: 2.25

## COc1ccc(C(c2ccc(OC)cc2)C(Cl)(Cl)Cl)cc1
[5]
  logD: 3.82

## CCCCCCCCCCOC(=O)c1cc(=O)[nH]c(=O)[nH]1
[6]
  logD: 2.85

## C[C@H](CS)C(=O)N1C[C@@H](Sc2ccccc2)C[C@H]1C(=O)O (relative stereo)
[7]
  logD: 2.16

## O=C(NCc1ccc(O)cc1)C(=O)c1c[nH]c2ccc([N+](=O)[O-])cc12
[8]
  logD: 2.67

## CCN1CCC[C@H]1CNC(=O)c1c(OC)ccc(Br)c1OC
[9]
  logP: 2.1

## c1cnc(N2CCN(Cc3ccc4c(c3)OCO4)CC2)nc1
[10]
  logP: 2.84

## Cc1ccc(C(=O)Cn2c3c(sc2=N)CCCC3)cc1
[11]
  logD: 1.49

## CN(C)C(=O)COC(=O)c1cc(S(N)(=O)=O)c(Cl)cc1NCc1ccco1
[12]
  logD: 1.18

## N#Cc1ccc(OCC2CCN(C/C=C/I)CC2)cc1
[13]
  logP: 3.36

## C[C@]12N[C@H](Cc3ccccc31)c1ccccc12
[14]
  logP: 1.79

## COC1=CC(=O)CC(C)C12Oc1c(Cl)c(OC)cc(OC)c1C2=O (stereo unspecified)
[15]
  logD: 2.33

## CCc1c(OC)cc(Cc2cnc(N)nc2N)cc1OC
[16]
  logD: 2.72

## O=C(O)Cc1cn(-c2ccccc2)nc1-c1ccc(Cl)cc1
[17]
  logP: 4.13

## O=C(O)CCC(=O)c1ccc(-c2ccccc2)cc1
[18]
  logP: 2.91

## CCOC(=O)C1=C[C@@H](OC(CC)CC)[C@H](NC(C)=O)[C@@H](N)C1
[19]
  logP: 1.21

## CCOC(=O)c1cncn1C(C)c1ccc(C2(C(F)(F)F)N=N2)cc1 (stereo unspecified)
[20]
  logD: 4.4

## CCCC(=O)NCCC(=O)NCc1c(O)c(=O)cc(C)n1C
[21]
  logD: -0.7

## COc1ccc(-c2coc3cc(O)ccc3c2=O)cc1
[22]
  logP: 3.32

## Cn1c(CCCC(=O)O)nc2cc(N(CCCl)CCCl)ccc21
[23]
  logD: 0.44

## COc1ccc(Nc2ccnc3cc(Cl)ccc23)cc1
[24]
  logP: 4.94

## O=C1Nc2c(Cl)ccc(OCCF)c2C2(CCCCC2)N1
[25]
  logD: 2.9

## O=C(Nc1ccnc(NC(=O)C2CC2)c1)c1c(Cl)cccc1Cl
[26]
  logD: 3.4

## CCCn1c(=O)c2[nH]c(C3CCCC3)nc2n(C/C=C/I)c1=O
[27]
  logD: 2.96

## Oc1ccc2ccccc2c1/N=N/c1ccccc1
[28]
  logP: 5.86

## CCCCC(CC)CP(=O)(O)CC(CC)CCCC (stereo unspecified)
[29]
  logP: 3.92

## C=CCN1CCN(C(=O)N=NC(=O)N2CCN(CC=C)CC2)CC1
[30]
  logP: 0.79

## COc1cccc(N(C)C(=N)Nc2cc(SC)ccc2Cl)c1
[31]
  logP: 2.34

## COc1ccc(C(=O)CSc2ccc(C)cc2)cc1
[32]
  logP: 2.47

## O=C1CCC[C@@H]2[C@H]3CCC[N@+]4([O-])CCC[C@@H](CN12)[C@@H]34
[33]
  logD: -0.86

## O=[N+]([O-])c1cc(Cl)c(/N=N/c2ccc(N(CCO)CCO)cc2Cl)c(Cl)c1
[34]
  logP: 3.9

## CC(C)Oc1cccc(NC(=O)c2ccccc2C(F)(F)F)c1
[35]
  logP: 3.7

## CCc1onc(C)c1NC1=CC(=O)C(=O)c2ccccc21
[36]
  logP: 2.14

## N#Cc1ccc(C(c2ccc(C#N)cc2)n2cncn2)cc1
[37]
  logD: 1.84

## C=C(CC(=O)c1ccc(-c2ccccc2Cl)cc1)C(=O)O
[38]
  logD: 3.32

## Nc1cc2c3c(cccc3c1)-c1ccccc1-2
[39]
  logP: 3.14

## COCCN1C=CC(=C2C(=O)c3ccc(Cl)cc3C2=O)C=C1
[40]
  logP: 2.78

## O=C1NC(=O)C2(CCCCCCCCCCC2)C(=O)N1
[41]
  logP: 3.51

## COCCOc1ccccc1S(=O)(=O)NC(=O)Nc1nc(OC)nc(OC)n1
[42]
  logP: 1.71

## c1cc(-c2cnc3c(-c4ccncc4)cnn3c2)ccn1
[43]
  logP: 2.5

## Cc1cn(C2CC(O)C(CO)S2)c(=O)n(Cc2cn(CCF)nn2)c1=O (stereo unspecified)
[44]
  logP: -0.86

## CCN1CCC[C@H]1CNC(=O)c1c(O)c(I)cc(OC)c1OC
[45]
  logD: 2.5

Reference: the SangsterLogP compilation
